Source: patent publication US11826357B2, “Bacterial efflux pump inhibitors” (RUTGERS, THE STATE UNIVERSITY OF NEW JERSEY, priority 2017, dated 2023)
Where a name gives a salt, the structure may show the parent alone.

Key:
P. aeruginosa ATCC 27853 = test: Intrinsic MIC assay (CLSI broth microdilution); assay type: cell-based; settings: Pseudomonas aeruginosa, ATCC27853, compound alone
Protocol: (§1) MIC assays were conducted in accordance with Clinical and Laboratory Standards Institute (CLSI) guidelines for broth microdilution. A 96-well plate containing cation-adjusted Mueller-Hinton (CAMH broth with 2-fold serial dilution of compounds was inoculated with log-phase bacterial at 5×10^5 CFU/mL. The final volume in each well was 100 μL. Each compound was tested in duplicate. The microtiter plates were incubated in an aerobic environment for 18 hours at 37° C. Then the bacterial growth was tested by reading the plate with a VersaMax plate reader (Molecular Devices, Inc.) at 600 nm. The MIC was defined as the lowest compound concentration that inhibited 90% of bacteria growth.
The intrinsic MIC of the experimental EPIs was tested with the method described. The 2-fold serial dilution begins with 100 μg/mL of tested compound in the first column of the 96-well plates. The following Gram-negative bacterial strains were included in these assays: […]

[1] = system: Pseudomonas aeruginosa ATCC 27853; test: Standard bacterial EPI assay: MIC of levofloxacin in the absence and presence of the EPI; assay type: cell-based; settings: P. aeruginosa ATCC 27853
Protocol: as §1
The EPI assay for the purposes of these studies represents a MIC assay in which the MIC of the antibiotic against the bacteria is tested in the presence of an experimental efflux pump inhibitor (EPI). […] Using serial dilutions of the EPI, its enhancement of antibiotic activity was then evaluated. […]
The impact of Example 2 on the MIC values of two test antibiotics (levofloxacin and cefepime) against P. aeruginosa ATCC 27853 were evaluated using our standard EPI assay. […]
In our standard EPI assay, the MIC of the test antibiotic is determined in the absence and presence of sub-inhibitory concentrations of the EPI. […]

`NCCC[C@H](N)CNC(=O)c1[nH]c2cc(-c3ccc(F)cc3)ccc2c1C1CC1` [Example 2, (S)-3-cyclopropyl-N-(2,5-diaminopentyl)-6-(4-fluorophenyl)-1H-indole-2-carboxamide dihydrochloride] was tested, and the MIC (P. aeruginosa ATCC 27853) was 12.5 µg/mL, the “MIC of levofloxacin in the presence of the EPI” value ([1]; 6.25 μg/mL (½×MIC) of the EPI) was 0.032 µg/mL and the “fold reduction of the MIC of levofloxacin relative to the absence of EPI” value ([1]; 6.25 μg/mL of the EPI) was 32 fold.
